Data published in paper PMC12486301 (The Journal of pharmacology and experimental therapeutics, 2025).
Several values for one entry are separate records, joined by “and”; a condition that tells them apart may be missing. Identical values can stand only once. Like-named read-outs stand apart in the source and are kept apart here.

Legend:
[1] = system: HeLa FlpIn ENT2 cell line; details: 2 minutes
[2] = system: HeLa S2 cell line; experiment: Functional assessment: NBMPR block of [3H]uridine uptake in HeLa S2 cells; format: cell-based, human; details: 100 nM NBMPR, 2 minutes
[3] = ref Table S8, cited from earlier work
[4] = biological target: T1, ENT1 (Homo sapiens, UniProt Q99808); experiment: Inhibition of [3H]uridine uptake into WT HeLa; format: cell-based; details: for inhibition at 20 µM: HeLa
T1 sequence (Q99808 1-456): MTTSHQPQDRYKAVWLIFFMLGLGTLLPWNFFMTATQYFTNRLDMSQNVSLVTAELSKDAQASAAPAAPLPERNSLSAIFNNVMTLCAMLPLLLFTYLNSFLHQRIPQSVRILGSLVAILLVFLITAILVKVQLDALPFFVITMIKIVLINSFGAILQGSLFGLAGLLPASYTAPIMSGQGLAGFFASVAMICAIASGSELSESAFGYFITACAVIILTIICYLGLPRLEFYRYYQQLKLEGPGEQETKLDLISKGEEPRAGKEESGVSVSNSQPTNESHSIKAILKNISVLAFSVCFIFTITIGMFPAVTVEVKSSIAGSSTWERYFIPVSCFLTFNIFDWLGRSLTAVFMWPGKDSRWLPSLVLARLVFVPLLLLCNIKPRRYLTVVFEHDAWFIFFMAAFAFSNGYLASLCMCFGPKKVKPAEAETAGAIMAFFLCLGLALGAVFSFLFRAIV

[5] = biological target: T2, ENT2 (Homo sapiens, UniProt Q14542); experiment: Inhibition of [3H]uridine uptake into HeLa FlpIn cells overexpressing hENT2; format: cell-based; details: for inhibition at 20 µM: HeLa
T2 sequence (Q14542 1-456): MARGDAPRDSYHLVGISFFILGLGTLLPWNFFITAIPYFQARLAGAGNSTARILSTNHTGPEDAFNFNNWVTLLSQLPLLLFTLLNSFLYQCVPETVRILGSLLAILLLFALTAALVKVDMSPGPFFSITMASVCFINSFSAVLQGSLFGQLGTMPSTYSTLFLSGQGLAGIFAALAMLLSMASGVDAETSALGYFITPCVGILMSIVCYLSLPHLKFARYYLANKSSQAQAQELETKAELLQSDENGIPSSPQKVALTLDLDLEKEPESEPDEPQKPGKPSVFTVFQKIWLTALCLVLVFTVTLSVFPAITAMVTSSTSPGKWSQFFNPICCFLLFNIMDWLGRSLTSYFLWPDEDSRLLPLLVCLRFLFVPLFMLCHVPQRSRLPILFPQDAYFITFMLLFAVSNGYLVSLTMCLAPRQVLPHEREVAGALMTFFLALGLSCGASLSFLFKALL

[6] = biological target: T1, ENT1; experiment: Kinetics of radiolabeled uridine uptake, ENT1 cell line; format: cell-based; details: 5 min uptake, pH 7.4
[7] = biological target: T2, ENT2; details: 5 min uptake, pH 7.4
[8] = read-out: ENT1 % Inhibition (20μM)
[9] = read-out: ENT2 % Inhibition (20μM)
[10] = read-out: ENT1 inhibition of uridine uptake (Spectrum screen, text)
[11] = read-out: ENT2 inhibition of transport activity (Spectrum screen, text)

| inhibition at 20 µM [4, 10] | inhibition at 20 µM [5, 11] | Compound | IC50 [4] | inhibition at 20 µM [4, 8] | IC50 [5] | inhibition at 20 µM [5, 9] | other results |
| --- | --- | --- | --- | --- | --- | --- | --- |
|  |  | O=[N+]([O-])c1ccc(CSc2ncnc3c2ncn3C2OC(CO)C(O)C2O)cc1 (centres unmarked) [NBMPR, nitrobenzylthioinosine] |  |  |  |  | total [3H]uridine uptake blocked ([1]; 100 nM NBMPR): ~ 55%; total [3H]uridine uptake reduced ([1]; 100 μM NBMPR): ~ 80%; reduction of [3H]uridine uptake [2]: 65–75% |
|  |  | CC(=O)N1CCN(c2ccc(OCC3COC(Cn4ccnc4)(c4ccc(Cl)cc4Cl)O3)cc2)CC1 (centres unmarked) [ketoconazole] | 7.2 ± 1.2 µM | 98.4% | 22.8 ± 0.7 µM | 89.4% | human plasma levels (molar) ([3]; converted from ng/mL): 6.6 µM and 11.3 µM; human plasma levels ([3]; documented clinical concentrations): 3500 ng/mL and 6000 ng/mL |
| ~80% | 35% | COc1ccc(-c2cc(=O)c3c(OC)c(OC)c(OC)cc3o2)cc1OC [sinensetin] | 1.25 ± 0.3 µM | 95.9% | 22.2 ± 2.2 µM | 82.5% |  |
| ~80% | 35% | C=CC[C@@H]1/C=C(\C)C[C@H](C)C[C@H](OC)[C@H]2O[C@@](O)(C(=O)C(=O)N3CCCC[C@H]3C(=O)O[C@H](/C(C)=C/[C@@H]3CC[C@@H](O)[C@H](OC)C3)[C@H](C)[C@@H](O)CC1=O)[C@H](C)C[C@@H]2OC [tacrolimus] |  |  |  |  |  |
|  |  | O=c1ccn([C@@H]2O[C@H](CO)[C@@H](O)[C@H]2O)c(=O)[nH]1 [uridine] |  |  |  |  | Jmax, maximal rate of uridine transport [6]: 20.2 ± 5.1 pmol·cm^−2·min^−1; Kt, Michaelis constant for uridine [6]: 37.7 ± 12.9 µM; Kt, Michaelis constant for uridine [7]: 119.1 ± 28.9 µM |
